Structures are written as SMILES. Counter-ions that a name gives are not always drawn. Marks after values point to notes of the source that are not given here.

The test system of one assay is bFGF-induced angiogenesis. The assay is described as follows: rat cornea micropocket method (angiogenesis inhibitory activity). It is filed as in vivo, Sprague-Dawley rats. The settings on record: rats with angiogenesis inhibitory activity / rats tested; sample pellet 20 »g; judged after 7 days. The method, then: The product compound (I) obtained in the examples given below were evaluated for angiogenesis inhibitory activity by the rat cornea micropocket method.
Essentially the method of Gimbrone et al. [J. National Cancer Institute, 52, 413-419 (1974)] was followed. Thus, adult male Sprague-Dawley rats (11 to 16 weeks of age) were anesthetized with nembutal and locally anesthetized by instillation of xylocaine eyedrops onto the eyeball. The cornea was incised to a length of about 2 mm at about 2mm inside from the corneal circumference by means of an injection needle, and a sustained release pellet containing basic fibroblast growth factor (bFGF; bovine brain-derived, purified product; R & D) and a sustained release pellet containing the test sample were inserted side by side into the incision so that the bFGF pellet was located on the central side in the cornea. In the control group, the bFGF pellet and a sample-free pellet were inserted into the cornea. After 7 days and after 10 days, the cornea was observed under a stereoscopic microscope.
The sustained release pellets were prepared in the following manner. An ethylene-vinyl acetate copolymer (Takeda Chemical Industries) was dissolved in dichloromethane to a concentration of 8%. A 3-»l portion of the solution was air-dried on a glass dish, an aqueous solution of bFGF (250 ng) was then placed thereon and air-dried and, finally 3 »l of the above ethylene-vinyl acetate copolymer solution was placed further thereon and air-dried to give a laminate consisting of two copolymer layers and a bFGF layer sandwiched therebetween. This sandwich sheet was made round into a bFGF pellet. The test sample pellets were prepared by dissolving each sample in ethanol in a concentration of 20 »g/2 »l, mixing the solution (2 »l) with 6 »l of an ethylene-vinyl acetate copolymer solution, air-drying the mixed solution on a glass dish and making the thus-obtained sheet round.
For `CO[C@@H]1[C@H](OC(=O)COCC(=O)O)CC[C@]2(CO2)[C@H]1[C@@]1(C)O[C@@H]1CC=C(C)C` [Example 5, O-Carboxymethoxyacetylfumagillol], the Inhibition rate was 8/8*.
`CO[C@@H]1[C@H](OC(=O)Nc2ccccc2)CC[C@]2(CO2)[C@H]1[C@@]1(C)O[C@@H]1CC=C(C)C` [Example 11, O-Phenylcarbamoylfumagillol]: the Inhibition rate is 9/9*.
As to `CO[C@@H]1[C@H](OCc2ccccc2)CC[C@]2(CO2)[C@H]1[C@@]1(C)O[C@@H]1CC=C(C)C` [Example 17, O-Benzylfumagillol], the Inhibition rate is on record as 7/8*.

The same assay, now with this note: rats with angiogenesis inhibitory activity / rats tested; sample pellet 20 »g; judged after 10 days.
Consider `CO[C@@H]1[C@H](OC(=O)CCC(=O)O)CC[C@]2(CO2)[C@H]1[C@@]1(C)O[C@@H]1CC=C(C)C` [Example 2, Sodium salt of O-(3-carboxypropionyl)fumagillol], for which the Inhibition rate is on record as 6/6.
Same read-out and setting: the same measure for `CO[C@@H]1[C@H](OC(=O)CCCC(=O)O)CC[C@]2(CO2)[C@H]1[C@@]1(C)O[C@@H]1CC=C(C)C` [Example 4, Sodium salt of O-(4-carboxybutanoyl)fumagillol]: 6/7; for `CO[C@@H]1[C@H](OC(=O)c2ccccc2C(=O)O)CC[C@]2(CO2)[C@H]1[C@@]1(C)O[C@@H]1CC=C(C)C` [Example 6, O-(2-Carboxybenzoyl)fumagillol]: 6/7; for `CO[C@@H]1[C@H](OC)CC[C@]2(CO2)[C@H]1[C@@]1(C)O[C@@H]1CC=C(C)C` [Example 14, O-Methylfumagillol]: 4/8.
Consider `CO[C@@H]1[C@H](OCc2ccc(Br)cc2)CC[C@]2(CO2)[C@H]1[C@@]1(C)O[C@@H]1CC=C(C)C` [Example 18, O-(p-Bromobenzyl)fumagillol], for which the Inhibition rate is recorded as 7/7.
Take `CO[C@@H]1[C@H](OS(=O)(=O)c2ccc(C)cc2)CC[C@]2(CO2)[C@H]1[C@@]1(C)O[C@@H]1CC=C(C)C` [Example 20, O-(p-Toluenesulfonyl)fumagillol]: the Inhibition rate was 3/4.
`CO[C@@H]1[C@H](OS(C)(=O)=O)CC[C@]2(CO2)[C@H]1[C@@]1(C)O[C@@H]1CC=C(C)C` [Example 21, O-Methylsulfonylfumagillol]: the Inhibition rate is 4/4.
Turning to `CO[C@@H]1[C@H](OC(=O)Oc2ccccc2)CC[C@]2(CO2)[C@H]1[C@@]1(C)O[C@@H]1CC=C(C)C` [Example 22, O-Phenoxycarbonylfumagillol], the Inhibition rate is given as 5/8.
The same measure, in the same setting: next, `CO[C@@H]1[C@H](OC(N)=O)CC[C@]2(CO2)[C@H]1[C@@]1(C)O[C@@H]1CC=C(C)C` [Example 23, O-Carbamoylfumagillol]: 6/8; `CO[C@@H]1[C@H](OC(=O)N2CCOCC2)CC[C@]2(CO2)[C@H]1[C@@]1(C)O[C@@H]1CC=C(C)C` [Example 24, O-Morpholinocarbonylfumagillol]: 5/12; `CO[C@@H]1[C@H](OC(=O)N2CCCCC2)CC[C@]2(CO2)[C@H]1[C@@]1(C)O[C@@H]1CC=C(C)C` [Example 25, O-Piperidinocarbonylfumagillol]: 6/8.
Regarding `CO[C@@H]1[C@H](OC(=O)NN)CC[C@]2(CO2)[C@H]1[C@@]1(C)O[C@@H]1CC=C(C)C` [Example 26, O-Carbazoylfumagillol], the Inhibition rate is 6/6.
For `CO[C@@H]1[C@H](OC(=O)n2ccnc2)CC[C@]2(CO2)[C@H]1[C@@]1(C)O[C@@H]1CC=C(C)C` [Example 27, O-(1-Imidazolylcarbonyl)fumagillol], the Inhibition rate is reported as 3/7.
On the same count and under the same terms, the same measure for `CO[C@@H]1[C@H](OC(=O)NCCN(C)C)CC[C@]2(CO2)[C@H]1[C@@]1(C)O[C@@H]1CC=C(C)C` [Example 28, O-(2-Dimethylaminoethylcarbamoyl)fumagillol]: 11/11; for `CO[C@@H]1[C@H](OC(=O)NC(C)=O)CC[C@]2(CO2)[C@H]1[C@@]1(C)O[C@@H]1CC=C(C)C` [Example 29, O-Acetylcarbamoylfumagillol]: 7/7; for `CO[C@@H]1[C@H](OC(=O)NC(=O)C(Cl)Cl)CC[C@]2(CO2)[C@H]1[C@@]1(C)O[C@@H]1CC=C(C)C` [Example 30, O-Dichloroacetylcarbamoylfumagillol]: 4/8.
Still for that read-out and setting: next, `CO[C@@H]1[C@H](OC(=O)NC(=O)C(Cl)(Cl)Cl)CC[C@]2(CO2)[C@H]1[C@@]1(C)O[C@@H]1CC=C(C)C` [Example 31, O-Trichloroacetylcarbamoylfumagillol]: 5/6.
For the compound `CO[C@@H]1[C@H](OC(=O)NC(=O)c2ccccc2)CC[C@]2(CO2)[C@H]1[C@@]1(C)O[C@@H]1CC=C(C)C` [Example 32, O-Benzoylcarbamoylfumagillol], the Inhibition rate is recorded as 9/12.
As for `C=C(C)C(=O)NC(=O)O[C@@H]1CC[C@]2(CO2)[C@@H]([C@@]2(C)O[C@@H]2CC=C(C)C)[C@@H]1OC` [Example 33, O-Methacryloylcarbamoylfumagillol], the Inhibition rate is listed as 4/6.
As for `CO[C@@H]1[C@H](OC(=O)NCCCl)CC[C@]2(CO2)[C@H]1[C@@]1(C)O[C@@H]1CC=C(C)C` [Example 34, O-(2-Chloroethylcarbamoyl)fumagillol], the Inhibition rate was 4/4.
For `CO[C@@H]1[C@H](OC(=O)Nc2ccc(Cl)cc2)CC[C@]2(CO2)[C@H]1[C@@]1(C)O[C@@H]1CC=C(C)C` [Example 35, O-(p-Chlorophenylcarbamoyl)fumagillol], the Inhibition rate is 4/8.
Take `CO[C@@H]1[C@H](OC(=O)Nc2ccc(F)cc2F)CC[C@]2(CO2)[C@H]1[C@@]1(C)O[C@@H]1CC=C(C)C` [Example 37, O-(2,4-Difluorophenylcarbamoyl)fumagillol]: the Inhibition rate is reported as 11/11.
On to `CO[C@@H]1[C@H](OC(=O)NS(=O)(=O)c2ccc(C)cc2)CC[C@]2(CO2)[C@H]1[C@@]1(C)O[C@@H]1CC=C(C)C` [Example 38, O-(p-Toluenesulfonylcarbamoyl)fumagillol], for which the Inhibition rate is on record as 13/15.
As to `CCN1CCN(C(=O)O[C@@H]2CC[C@]3(CO3)[C@@H]([C@@]3(C)O[C@@H]3CC=C(C)C)[C@@H]2OC)CC1` [Example 39, O-[1-(4-Ethylpiperazinyl)carbonyl]fumagillol], the Inhibition rate is on record as 8/8.
For the compound `CO[C@@H]1[C@H](OC(=O)NC(=O)COC(C)=O)CC[C@]2(CO2)[C@H]1[C@@]1(C)O[C@@H]1CC=C(C)C` [Example 40, O-Acetoxyacetylcarbamoylfumagillol], the Inhibition rate is listed as 6/6.
On to `CO[C@@H]1[C@H](OC(=O)NC(=O)CSC(C)=O)CC[C@]2(CO2)[C@H]1[C@@]1(C)O[C@@H]1CC=C(C)C` [Example 41, O-Acetylthioacetylcarbamoylfumagillol], for which the Inhibition rate is 2/4.
As to `CO[C@@H]1[C@H](OC(=O)NC(=O)CSc2nc3ccccc3s2)CC[C@]2(CO2)[C@H]1[C@@]1(C)O[C@@H]1CC=C(C)C` [Example 42, O-(2-Benzothiazolylthioacetylcarbamoyl)fumagillol], the Inhibition rate is listed as 7/7.
`CO[C@@H]1[C@H](OC(=O)NC(=O)CSc2cccc[n+]2[O-])CC[C@]2(CO2)[C@H]1[C@@]1(C)O[C@@H]1CC=C(C)C` [Example 43, O-[(Pyridine-N-oxide-2-yl)thioacetylcarbamoyl]fumagillol]: the Inhibition rate is listed as 7/7.
Same read-out and setting: next, `CCN(CC)CC(=O)NC(=O)O[C@@H]1CC[C@]2(CO2)[C@@H]([C@@]2(C)O[C@@H]2CC=C(C)C)[C@@H]1OC` [Example 44, O-Diethylaminoacetylcarbamoylfumagillol]: 7/7.
Still for that read-out and setting: the same measure for `CO[C@@H]1[C@H](OC(c2ccccc2)c2ccccc2)CC[C@]2(CO2)[C@H]1[C@@]1(C)O[C@@H]1CC=C(C)C` [Example 45, O-Diphenylmethylfumagillol]: 8/13.
For the compound `CO[C@@H]1[C@H](OCc2cccc3ccccc23)CC[C@]2(CO2)[C@H]1[C@@]1(C)O[C@@H]1CC=C(C)C` [Example 46, O-(1-Naphthylmethyl)fumagillol], the Inhibition rate was 7/10.
For the compound `CO[C@@H]1[C@H](OC(=O)CCCCl)CC[C@]2(CO2)[C@H]1[C@@]1(C)O[C@@H]1CC=C(C)C` [Example 49, O-(4-Chlorobutyryl)fumagillol], the Inhibition rate is recorded as 4/5.
With `CO[C@@H]1[C@H](OC(=O)NC(=O)CSc2nnnn2CCN(C)C)CC[C@]2(CO2)[C@H]1[C@@]1(C)O[C@@H]1CC=C(C)C` [Example 52, O-[[1-(2-Dimethylaminoethyl)tetrazol]-5-yl-thioacetylcarbamoyl]fumagillol], the Inhibition rate was 6/8.
Consider `CO[C@@H]1[C@H](OC(=O)NC(=O)CSc2nnc(C)s2)CC[C@]2(CO2)[C@H]1[C@@]1(C)O[C@@H]1CC=C(C)C` [Example 53, O-[(2-methyl-1,3,4-thiadiazol-5-yl)thioacetylcarbamoyl]fumagillol], for which the Inhibition rate was 8/8.
With `CO[C@@H]1[C@H](OC(=O)NC(=O)CSc2cccc3ccccc23)CC[C@]2(CO2)[C@H]1[C@@]1(C)O[C@@H]1CC=C(C)C` [Example 54, O-(1-Naphthalenethioacetylcarbamoyl)fumagillol], the Inhibition rate is recorded as 5/5.
